According to patent US8685972B2, “Pyrimidine derivatives for treatment of alzheimer's disease” (Merck Sharp & Dohme Corp., priority 2008, dated 2014):

Target: T1, γ-secretase (Homo sapiens, UniProt P49768)
T1 construct: Human SH-SY5Y neuroblastoma cells overexpressing the direct β-secretase substrate SPA4CT; endogenous in cells; host or cells: human SH-SY5Y neuroblastoma cells (stably overexpressing the substrate SPA4CT, induced with sodium butyrate)
Assay: Cell-Based γ-Secretase Assay (inhibition of Aβ(1-42) production, Meso Scale detection)
Details: Human SH-SY5Y neuroblastoma cells overexpressing SPA4CT; overnight incubation; Aβ(42) in media
Method: Cell-Based γ-Secretase Assay
Human SH-SY5Y neuroblastoma cells overexpressing the direct β-secretase substrate SPA4CT were induced with sodium butyrate (10 mM) for 4 hours prior to plating. Cells were plated at 35,000 cells/well/100 μl in 96-well plates in phenol red-free MEM/10% FBS, 50 mM HEPES, 1% Glutamine and incubated for 2 hrs at 37° C., 5% CO2.
Compounds for testing were diluted into Me2SO to give a ten point dose-response curve. Typically 10 μl of these diluted compounds in Me2SO were further diluted into 182 μl dilution buffer (phenol red-free MEM/10% FBS, 50 mM HEPES, 1% Glutamine) and 10 μl of each dilution was added to the cells in 96-well plates (yielding a final Me2SO concentration of 0.5%). Appropriate vehicle and inhibitor controls were used to determine the window of the assay.
After incubation overnight at 37° C., 5% CO2, 25 μl and 50 μl media were transferred into a standard Meso avidin-coated 96-well plate for detection of Aβ(40) and Aβ(42) peptides, respectively. 25 μl Meso Assay buffer (PBS, 2% BSA, 0.2% Tween-20) was added to the Aβ(40) wells followed by the addition of 25 μl of the respective antibody premixes to the wells:
Aβ(40) premix: 1 μg/ml ruthenylated G2-10 antibody, 4 μg/ml biotinylated 4G8 antibody diluted in Origen buffer
Aβ(42) premix: 1 μg/ml ruthenylated G2-11 antibody, 4 μg/ml biotinylated 4G8 antibody diluted in Origen buffer
(Biotinylated 4G8 antibody supplied by Signet Pathology Ltd; G2-10 and G2-11 antibodies supplied by Chemicon)
After overnight incubation of the assay plates on a shaker at 4° C., the Meso Scale Sector 6000 Imager was calibrated according to the manufacturer's instructions. After washing the plates 3 times with 150 μl of PBS per well, 150 μl Meso Scale Discovery read buffer was added to each well and the plates were read on the Sector 6000 Imager according to the manufacturer's instructions.
LD50 and IC50 values for inhibition of Aβ(40) and Aβ(42) were calculated by nonlinear regression fit analysis using the appropriate software (eg. Excel fit). The total signal and the background were defined by the corresponding Me2SO and inhibitor controls.

Structure (SMILES)	IC50
COC(=O)c1cc(Nc2cc(C(C)(C)C)ccc2C)nc(N2CCC(Cc3ccncc3)CC2)n1 [Example 18]	500 to 1500 nM
Cc1ccc(C(C)(C)C)cc1Nc1nc(N2CCC(Cc3ccncc3)CC2)ncc1F [Example 22]	1500 to 3000 nM
CCOc1cc(C)c(Nc2nc(N3CCC(Cc4ccncc4)CC3)ncc2Cl)cc1C(C)C [Example 11]	500 to 1500 nM

Results, then the compound that gave them:

IC50	Structure (SMILES)
1500 to 3000 nM	COc1cnc(N2CCC(Cc3ccncc3)CC2)nc1Nc1cc(N(C)C)ccc1C [Example 6]
500 to 1500 nM	Cc1ccc(OC(C)C)cc1Nc1ccnc(N2CCC(Cc3ccncc3)CC2)n1 [Example 12]
500 to 1500 nM	Cc1ccc(C(C)(C)C)cc1Nc1ccnc(N2CCC(Cc3ccncc3)CC2)n1 [Example 4]
1500 to 3000 nM	Cc1cc(C)c(N(C)C)cc1Nc1ccnc(N2CCC(Cc3ccncc3)CC2)n1 [Example 10]
